This is an account of results in patent US20240252657A1, “HEMTAC SMALL-MOLECULE DEGRADATION AGENT AND APPLICATION THEREOF” (SHANDONG UNIVERSITY, priority 2022, published 2024).

One data set concerns the target T1, CDK4 (Mus musculus, UniProt P30285).
T1 construct: degradation of CDK4 and CDK6 in B16F10 cells; endogenous in cells; host or cells: B16F10
T1 sequence (P30285 1-303): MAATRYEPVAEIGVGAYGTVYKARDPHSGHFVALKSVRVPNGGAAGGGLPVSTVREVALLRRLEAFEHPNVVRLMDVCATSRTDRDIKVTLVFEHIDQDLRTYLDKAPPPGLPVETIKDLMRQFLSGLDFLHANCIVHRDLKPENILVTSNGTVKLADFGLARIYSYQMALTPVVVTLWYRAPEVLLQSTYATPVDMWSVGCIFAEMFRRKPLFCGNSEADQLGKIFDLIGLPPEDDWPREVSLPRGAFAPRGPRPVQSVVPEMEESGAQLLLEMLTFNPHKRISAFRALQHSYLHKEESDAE
Kind of data set: Western blot, CDK4 degradation in B16F10 cells. The settings on record: read-out: DC50 (drug concentration leading to 50% protein degradation) of CDK4. The class given is cell-based. On the procedure: (§1) After B16F10 cells were treated with the compound at different concentrations and for different periods of time, the levels of CDK4 and CDK6 proteins in the cells were measured by Western blot. Firstly, intracellular proteins were extracted and quantified. The cells were lysed with RIPA cell lysate (with a protease inhibitor), and proteins were collected, which were quantified by a BCA protein quantitative determination kit and quantified to the same concentration. Protein denaturation: The proteins were placed in a water bath at 100° C. for 8 minutes to denature the proteins. Loading and gel electrophoresis: The loading amount per cell was generally 20 μL. […] Membrane transfer: The membrane transfer was carried out using a wet transfer instrument, at a constant current of 250 mA for 90 minutes. The PVDF membrane should be soaked with methanol beforehand. Blocking: The PVDF membrane was placed in BSA blocking buffer for 1 h (with slow shaking in a shaker). Incubation with primary antibody: The primary antibody was diluted according to the instructions. The primary antibody was added, followed by incubation overnight at 4° C. Membrane washing: The membrane was washed with TBST washing buffer for 3 times, each time for 10 minutes. Incubation with secondary antibody: The second antibody was added, followed by incubation in a shaker at room temperature for 1 h. […]
In general terms: In western blotting, separated proteins are transferred to a membrane and probed.

The target in the next data set is T2, CDK6 (Mus musculus, UniProt Q64261).
T2 construct: degradation of CDK4 and CDK6 in B16F10 cells; endogenous in cells; host or cells: B16F10
T2 sequence (Q64261 whole entry): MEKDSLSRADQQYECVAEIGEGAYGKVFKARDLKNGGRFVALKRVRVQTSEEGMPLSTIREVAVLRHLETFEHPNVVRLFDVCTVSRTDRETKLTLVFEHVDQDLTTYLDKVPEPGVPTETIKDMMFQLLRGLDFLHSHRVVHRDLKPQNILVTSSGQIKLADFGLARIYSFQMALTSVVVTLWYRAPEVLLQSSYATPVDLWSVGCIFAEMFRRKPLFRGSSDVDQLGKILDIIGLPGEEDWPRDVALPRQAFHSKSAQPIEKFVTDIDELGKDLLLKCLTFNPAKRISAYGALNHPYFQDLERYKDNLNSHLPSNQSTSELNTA
In words: Western blot, CDK6 degradation in B16F10 cells. It is filed as cell-based. The settings on record: read-out: DC50 (drug concentration leading to 50% protein degradation) of CDK6. As for the experimental part:
as §1

For another data set, the system named is CDK4/6. Kind of data set: Western blot, CDK4/6 protein level in B16F10 cells. The class given is cell-based, mouse. As for the experimental part: as §1
The test system of a further data set is mouse B16F10 melanoma. Kind of data set: Anti-tumor experiment in mice in vivo, B16F10 melanoma xenograft model. On the procedure: B16F10 cells (10^6 cells/mouse) were injected subcutaneously into the forelimb of C57BL/6 mice to establish an xenograft model of mouse B16F10 melanoma. When the tumor volume reached 100-200 mm^3, the mice were randomly divided into four groups (n=6). The compound was injected intraperitoneally every day for two weeks, and the body weights and tumor volumes of the mice were measured every two days. The tumor length and width were measured along two orthogonal axes with a vernier caliper, and the tumor volume in the mouse was calculated based on an equation V (mm^3)=(length×width^2)/2.

Each structure is given as a SMILES string. A value given as a limit tells only on which side of the number the result lay.

Take `COc1c(C)cnc(Cn2cc(C#CCCn3cc(CNC(=O)CN4CCN(c5ccc(Nc6ncc7c(C)c(C(C)=O)c(=O)n(C8CCCC8)c7n6)nc5)CC4)nn3)c3c(Cl)nc(N)nc32)c1C` [Compound 26]: the DC50 on CDK4 was about 26 nM; at CDK6, about 19 nM. For the same compound, the “time within which degradation of CDK4/6 was induced” value with CDK4/6 (B16F10 cells, 0.5 μM) was at most 12 h. The “degradation activity (rank among the HEMTACs)” value with CDK4/6 (B16F10 melanoma cells, 24 h) is given as “highest degradation activity”. The “anti-tumor effect compared with BIIB021 (20 mg/kg)” value in the data set with mouse B16F10 melanoma (20 mg/kg, intraperitoneally every day for two weeks) is reported as “better than that of HSP90 inhibitor BIIB021”. Also, in the data set with mouse B16F10 melanoma (40 mg/kg, intraperitoneally every day for two weeks), the growth of melanoma entry was “significantly inhibit the growth of melanoma”. In addition, the “other signs of toxicity” value in the data set on mouse B16F10 melanoma (all treatment groups) is “no other signs of toxicity”. Besides, in the data set on mouse B16F10 melanoma (intraperitoneally every day for two weeks), the “body weight of mice” value is recorded as “slight weight loss”. The “anti-melanoma effect in vivo” value in the data set on mouse B16F10 melanoma (mouse B16F10 melanoma model, FIG. 4 legend, no dose given) is recorded as “significant anti-melanoma effect”.
